Measurements published in patent US8962688B2, “Method for the treatment of gastrointestinal disorders” (Sucampo AG, priority 2005, dated 2015).

What was measured:
[1] = system: indomethacin-induced stomach ulcers; assay: Indomethacin-induced stomach ulcers in rats; format: in vivo, rat
Method: Each group of test animals used consisted of 10 male rats of the Crj: Wistar strain. The animals were fasted for 24 hours before the oral administration of the Compound 1 (13,14-dihydro-15-keto-16,16-difluoro-PGE1) or the vehicle. Ten minutes after the oral administration of the test sample or the vehicle, all rats received a 20 mg/kg oral dose of indomethacin. The animals were euthanized 6 hours later. The stomach was removed and the length of the longest axis of each stomach ulcer was measured. The ulcer index was calculated as the sum of the lengths of each individual ulcer.

[2] = system: stress-induced stomach ulcers; assay: Stress-induced (water immersion, 6 hours) stomach ulcers in rats; format: in vivo, rat; settings: for Ulcer index (sum of lengths of each individual ulcer): mean ± SE
Method: Each group of test animals used consisted of 9 or 10 male rats of the Crj: Wistar strain. The animals were fasted for 24 hours before the oral administration of the test sample. Ten minutes after the oral administration of various doses of the Compound 1 (13,14-dihydro-15-keto-16,16-difluoro-PGE1) or the vehicle, each animal was put in a narrow cage, and was immersed in water (23° C.) up to the height of the xipoid process for 6 hours. The animals were then euthanized. The stomach was removed and the maximum length of the longest axis of each stomach ulcer was measured. The ulcer index was calculated as the sum of lengths of each individual ulcer.

total acid output = assay: Total gastric acid output in pylorus-ligated rats; format: in vivo, rat; settings: oral, 30 min before pyloric ligation; 4 hours output; compared to vehicle-treated control (FIG. 1)
Method: The study was conducted according to the method described by Wong et al (Pharmacol. Soc. 32:49-56, 1989). Each group of test animals used consisted of 6 male rats of the Crj: Wistar strain. The animals were fasted for 24 hours with free access to water. Each dose formulation of Compound 1 (13,14-dihydro-15-keto-16,16-difluoro-PGE1), saline and medium chain fatty acid triglyceride (MCT) was orally administered 30 minutes before pyloric ligation. For positive control, the animals were received pentagastrin, a known gastric acid stimulator, subcutaneously at 2000 μg/kg. Under ether anesthesia, the abdomen was opened through a midline incision, the pylorus ligated with 3-0 silk suture, and the abdomen closed. The animals were kept without diet and water thereafter. Four hours after pyloric ligation, the animals were euthanized by cervical dislocation and the abdomen opened. The gastric contents were collected into sterile centrifuge tubes, and centrifuged at 3000 rpm for 10 minutes to remove solid materials. The supernatant was collected and the volume measured. A 1 mL aliquot of each gastric fluid sample was titrated to pH 7.0 with 0.01 N sodium hydroxide using an automatic […], Co., Ltd., Japan) to determine the acidity (mEq H^+/mL) Total output of gastric acid for 4 hours was calculated

[3] = system: rabbit platelet aggregation induced with ADP; assay: Rabbit platelet aggregation induced with ADP; format: cell-based; settings: for % Inhibition / Maximum aggregation: 10^−7 g/mL, platelet-rich plasma; for Maximum aggregation: mean ± SE, n=3; for Effect on the platelet aggregation: result in words, summary of Table 3
Method: Blood was collected from rabbits of the JW/CSK strain and citrated by mixing with sodium citrate in a ratio of 9 volumes of blood to 1 volume of 3.8% sodium citrate solution. Platelet-rich plasma (PRP) was obtained by centrifugation of the citrated blood at 1000 rpm (168×g) for 10 minutes. After collection of PRP, residual blood was further centrifuged at 3000 rpm (1670×g) for 15 minutes, and the supernatant was used as platelet-poor plasma (PPP). After pre-incubation of PRP (200 μL) with each test solution (25 μL) for 1 minutes at 37° C., 25 μL of platelet aggregation agent (ADP […]) was added. Platelet aggregation was measured with a platelet aggregation meter (HEMATRACER PAT-4A, Niko Bioscience, Inc.). Each test solution was examined with 3 different animal source platelets in duplicate fashion. Inhibition percent was calculated by comparing with the maximal aggregation with the saline-treatment group.

[4] = system: gastric ulcer induced by water-immersion stress; assay: Gastric ulcer induced by water-immersion stress (5 hours) in rats, single and combined treatment; format: in vivo, rat; settings: for Inhibition of the gastric ulcer: result in words, summary of Table 4
Method: Wistar rats were used after an overnight fast with free access to water. Compound 1 (13,14-dihydro-15-keto-16,16-difluoro-PGE1) or Compound 2(13,14-dihydro-15-keto-16,16-difluoro-18(s) methyl-PGE1) was orally administered to the animals. When the effect of combined treatment with Compound 1 and proton pump inhibitor (lansoprazole or omeprazole) was evaluated, Compound 1 and proton pump inhibitor were orally administered simultaneously. Control group received the same volume of the vehicle. Ten minutes after the administration, the animals were placed in stress cages and were vertically immersed to the xiphoid process in a water bath maintained at 23° C. Five hours later, each animal was taken out from the cage and sacrificed by CO2 asphyxiation. The stomach was removed after ligating the cardiac region of stomach and the upper part of duodenum. The stomach was filled with 4 mL of physiological saline solution, and fixed in 1% formalin solution for 30 minutes. The stomach was opened along the greater curvature. The length (mm) of the individual ulcer was measured and the ulcer index was expressed as the sum of the lengths of all ulcers per stomach.

Structure (SMILES) | % Inhibition [3] [%] | Maximum aggregation [3] [%] | Effect on the platelet aggregation [3] | Inhibition ([4]; 10 μg/kg p.o.) [%] | Ulcer Index Mean ± S.E. ([4]; 10 μg/kg p.o.) [mm] | Inhibition ([4]; 30 μg/kg p.o.) [%] | Ulcer Index Mean ± S.E. ([4]; 30 μg/kg p.o.) [mm] | Inhibition ([4]; 100 μg/kg p.o.) [%] | Ulcer Index Mean ± S.E. ([4]; 100 μg/kg p.o.) [mm] | Inhibition of the gastric ulcer [4] | also measured
CCCCC(F)(F)C(=O)CCC1C(O)CC(=O)C1CCCCCCC(=O)O (stereo not shown) [Compound 1, 13,14-dihydro-15-keto-16,16-difluoro-PGE1] | 0 | 49.5 ± 2.5 | no effect | 23 | 12.2 ± 1.9 | 36 | 10.1 ± 1.6 | 91 | 1.4 ± 0.6 | dose-dependent manner | Ulcer index (sum of lengths of each individual ulcer) ([1]; 2 μg/kg po, 10 min before indomethacin 20 mg/kg po, mean ± SE): 27.9 ± 5.1; % Inhibition ([1]; 2 μg/kg po, versus vehicle control): 44%; Protection against indomethacin-induced ulcer formation ([1]; result in words, summary of Table 1): significant protection; % Inhibition ([2]; 3 μg/kg po): 9.2%; Ulcer index (sum of lengths of each individual ulcer) ([2]; 3 μg/kg po): 26.6 ± 3.7; % Inhibition ([2]; 10 μg/kg po): 20.1%; Ulcer index (sum of lengths of each individual ulcer) ([2]; 10 μg/kg po): 23.4 ± 4.7; % Inhibition ([2]; 30 μg/kg po): 54.3%; Ulcer index (sum of lengths of each individual ulcer) ([2]; 30 μg/kg po): 13.4 ± 2.0; % Inhibition ([2]; 100 μg/kg po): 85.3%; Ulcer index (sum of lengths of each individual ulcer) ([2]; 100 μg/kg po): 4.3 ± 1.9; Protection against stress-induced ulcer formation ([2]; result in words, summary of Table 2): protection significantly; Effect on total acid output (total acid output): did not affect
CC[C@H](C)CC(F)(F)C(=O)CC[C@H]1[C@H](O)CC(=O)[C@@H]1CCCCCCC(=O)O [Compound 2, 13,14-dihydro-15-keto-16,16-difluoro-18(s) methyl-PGE1] | – | – | – | 21 | 12.6 ± 2.2 | 36 | 10.2 ± 2.0 | 85 | 2.4 ± 0.9 | dose-dependent manner | –
Cc1c(OCC(F)(F)F)ccnc1C[S+]([O-])c1nc2ccccc2[nH]1 (stereo not shown) [Lansoprazole, lansoprazole, reference compound] | – | – | – | – | – | – | – | – | – | – | Ulcer Index Mean ± S.E. ([4]; Lansoprazole 1000 μg/kg p.o. alone): 4.6 ± 1.2 mm; inhibition at 1 mg/kg ([4]; Rattus norvegicus, po, Lansoprazole 1000 μg/kg p.o. alone): 46%
COc1ccc2[nH]c([S+]([O-])Cc3ncc(C)c(OC)c3C)nc2c1 (stereo not shown) [Omeprazole, omeprazole, reference compound] | – | – | – | – | – | – | – | – | – | – | Ulcer Index Mean ± S.E. ([4]; Omeprazole 3000 μg/kg p.o. alone): 5.9 ± 0.9 mm; inhibition at 3 mg/kg ([4]; Rattus norvegicus, po, Omeprazole 3000 μg/kg p.o. alone): 31%
CCCCC[C@H](O)/C=C/[C@H]1[C@H](O)CC(=O)[C@@H]1CCCCCCC(=O)O [PGE1, prostaglandin E1, reference compound] | 73 | 23.3 ± 1.9 | significantly inhibited | – | – | – | – | – | – | – | –
